Experimental findings from ChEMBL document CHEMBL1135920, “Synthesis and in vitro antitumor activity of new deaza analogues of the nonpolyglutamatable antifolate N(alpha)-(4-amino-4-deoxypteroyl)-N(delta)-hemiphthaloyl-L-ornithine (PT523)” (J Med Chem, 2002) are described below.

The IC50 is the concentration that gives 50% inhibition. Broadly, the Ki is a dissociation constant, usually derived from enzyme kinetics or from competition with a known ligand.

One experiment concerns CCRF-CEM. Put plainly: Inhibition the growth of CCRF-CEM human leukemic lymphoblasts in culture during 72 hr of continuous drug exposure. The class given is functional, cell-based.
The target of another experiment is T1, Dihydrofolate reductase (Homo sapiens, UniProt P00374).
T1 sequence (P00374 whole entry): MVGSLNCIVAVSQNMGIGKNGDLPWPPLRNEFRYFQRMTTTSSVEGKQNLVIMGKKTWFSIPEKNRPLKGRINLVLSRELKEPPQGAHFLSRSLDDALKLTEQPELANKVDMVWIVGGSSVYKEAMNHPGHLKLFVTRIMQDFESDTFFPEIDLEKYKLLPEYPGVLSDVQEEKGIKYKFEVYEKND
Kind of experiment: Inhibitory activity against human recombinant Dihydrofolate reductase.

The compound `Nc1cc(N)c2cc(CCc3ccc(C(=O)NC(CCCNC(=O)c4ccccc4C(=O)O)C(=O)O)cc3)ccc2c1` (centres undefined) came in with an IC50 in the experiment on CCRF-CEM of 0.69 nM. At Dihydrofolate reductase, the inhibitory constant (Ki) was 0.00021 nM.
In the experiment on CCRF-CEM, `CCC(Cc1cnc2nc(N)nc(N)c2n1)c1ccc(C(=O)NC(CCCNC(=O)c2ccccc2C(=O)O)C(=O)O)cc1` (centres undefined) yielded an IC50 of 1.2 nM. On Dihydrofolate reductase, the Ki was determined as 0.00062 nM.
The compound `C#CCC(Cc1cnc2nc(N)nc(N)c2n1)c1ccc(C(=O)NC(CCCNC(=O)c2ccccc2C(=O)O)C(=O)O)cc1` (centres undefined) showed an IC50 with CCRF-CEM of 1.3 nM. For the same compound, on Dihydrofolate reductase, the Ki was determined as 0.0006 nM.
Take `Nc1nc(N)c2cc(CNc3ccc(C(=O)NC(CCCNC(=O)c4ccccc4C(=O)O)C(=O)O)cc3)ccc2n1` (centres undefined): half-maximal inhibition in the experiment on CCRF-CEM (IC50) was put at 0.64 nM.
With `Nc1cc(N)c2nc(CCc3ccc(C(=O)NC(CCCNC(=O)c4ccccc4C(=O)O)C(=O)O)cc3)cnc2c1` (centres undefined), the IC50 in the experiment on CCRF-CEM was found to be 0.53 nM. The inhibition constant (Ki) on Dihydrofolate reductase is 0.00035 nM.
